The values that follow come from publication PMC11144398, “Crizotinib inhibits the metabolism of tramadol by non-competitive suppressing the activities of CYP2D1 and CYP3A2” (PeerJ, 2024).

For series [1], the system named is tramadol metabolism (O-desmethyl tramadol production) in rat liver microsomes. Briefly: Liver microsomal incubation assay: inhibition of tramadol metabolism (O-desmethyl tramadol production) in RLM. Type of series: in vitro ADME. The settings on record: rat, tramadol 60 µM. The protocol:
(§1) All the substance meet the requirements for analysis.
(§2) To obtain the Michaelis kinetic parameters of tramadol in RLM and HLM, a 200 µL incubation system was established containing 2 µL RLM or HLM (0.2 mg/mL), 186 µL 1xPBS buffer (pH = 7.4), 2 µL tramadol (10–500 µM), and 10 µL NADPH (1 mM). The mixture was pre-incubated for 5 min without NADPH in a water bath shaking at 37 °C. Then, NADPH was added to initiate the reaction, and the mixture was incubated for another 30 min. The reaction was terminated by adding 400 µL of cold ACN and 20 µL of IS (500 ng/mL).
(§3) For drug-interaction screening, 100 µM of each drug (1.6 µL) was added to the system, and added PBS to the final volume of 200 uL. Tramadol concentration was set at 60 µM according to the Km.
(§4) To determine the half-maximal inhibitory concentration (IC50), the concentration of crizotinib was set at 0.01, 0.1, 1, 10, 25, 50, and 100 µM, while the concentration of tramadol was constant at 60 µM in RLM or 100 µM in HLM (according to Km).
(§5) All data were presented as mean ± SD (standard deviation).
Background: Liver microsomes are vesicles of endoplasmic reticulum, rich in cytochrome P450 enzymes.

For series [2], the system named is tramadol metabolism in rat liver microsomes (RLM). The series is described as above. The note with it: RLM. Type of series: in vitro ADME. The protocol: as §1, §2, §3, §4, §5
Series [3] in a line: Pharmacokinetics of tramadol and O-desmethyl tramadol in SD rats with or without crizotinib. The note with it: single dose of crizotinib 45 mg/kg, tramadol 20 mg/kg. The text has this:
Ultra-performance liquid chromatography-tandem mass spectrometry (UPLC-MS/MS) was utilized to measure the concentration of both tramadol and O-desmethyl tramadol. Separation was achieved using a Waters Acquity UPLC BEH C18 column, with dimensions of 2.1 mm × 50 mm and 1.7-µm particle size (Waters Corp., Milford, MA, USA), and quantitation was completed using a Waters XEVO TQD triple quadruple mass spectrometer. The mobile phase was composed of 0.1% formic acid (A) and ACN (B), and the gradient elution was carried out with a flow rate of 0.4 mL/min, following the procedure: 90–10% A (0–1.4 min), 10–90% A (1.4–1.5 min), and 90% A (1.5–2.0 min). Positive mode was used to detect the analytes with the following transitions: m/z 264.2 →58.0, m/z 250.2 →58.2, and m/z 285.0 →154.0 for tramadol, O-desmethyl tramadol, and diazepam (used as an internal standard, IS), respectively. The collision energy was 20 V for tramadol and O-desmethyl tramadol, and 25 V for diazepam. The standard for tramadol and O-desmethyl tramadol were dissolved in a small amount of DMSO (the concentration was 1 mg/mL) then diluted with acetonitrile (the final concentration was 1 ng/mL–1,000 ng/mL). Diazepam was diluted with methanol gradually to 500 ng/mL).
SD male rats (280 ± 15 g) were purchased from the Shanghai Animal Experimental Center. Before the experiment, the rats were kept in the animal room for two weeks with adequate water and food in order to adapt to the new environment. The room temperature was kept at 20–25 °C and the humidity was kept at 50%–65%. The change period of light and dark conditions was 12 h, which simulates the change of day and night. All animal experiments were approved by the Ethics Committee of Wenzhou Medical University (Approval number: xmsq2022-0621).
Generally speaking, only when at least five or more animals are involved in the experiment can the results be convincing. Thus, twenty SD rats were randomly divided into four groups with five animals per group: group A received a single dose of 20 mg/kg of tramadol; group B received a single dose of 45 mg/kg of crizotinib and 20 mg/kg of tramadol; group C received multiple doses of 0.5% carboxymethylcellulose sodium salt (CMC-Na) for 7 days and a single dose of 20 mg/kg of tramadol; and group D received multiple doses of 45 mg/kg of crizotinib for 7 days and a single dose of 20 mg/kg of tramadol. Prior to the experiment, all rats were fasted for 12 h but allowed free access to water. Once the experiment began, 0.5% CMC-Na and crizotinib were administered to groups C and D for 7 days, respectively, then to groups A and B on the last day of the experiment. After 30 min, all rats were orally administered 20 mg/kg of tramadol. Blood samples were collected from the tail vein at 5 min, 15 min, 30 min, 1 h, 2 h, 3 h, 4 h, 6 h, 8 h, 10 h, 12 h, and 24 h following tramadol administration. […] The samples were centrifuged at 2400 × g for 10 min to obtain serum. Each 50 µL serum was mixed with 150 µL ACN and 20 µL IS (500 ng/mL). After vortexing for 2 min and centrifugation at 16200 × g for 10 min at 4 °C, the supernatant was obtained, then we used UPLC-MS/MS analysis to detect the concentration of tramadol and O-desmethyl tramadol. After the experiment, all the animals were euthanized by 5% isoflurane inhalation anesthesia.
The Michaelis–Menten, IC50, and Lineweaver-Burk plots were generated using GraphPad Prism 6.0 software (GraphPad Software, Boston, MA, USA) with corresponding values for Km, IC50, and Ki (inhibition constant).

By IC50 is commonly meant the concentration at which inhibition is half-maximal. The term Ki denotes the dissociation constant of the complex between target and ligand, obtained from inhibition or displacement. Low readings indicate higher affinity, high ones lower affinity. Turning to `C[C@@H](Oc1cc(-c2cnn(C3CCNCC3)c2)cnc1N)c1c(Cl)ccc(F)c1Cl` [crizotinib], the inhibition at 30 min, 100 µM in series [1] (pH 7.4, RLM, 100 µM of each drug, vs control group, read-out: inhibitory rate on tramadol metabolism (production of O-desmethyl tramadol)) was found to be 97.2%. Also, in series [1] (pH 7.4, RLM, crizotinib 0.01-100 µM), the IC50 at 30 min was 8.74 ± 0.18 µM. Besides, the “inhibition mode of tramadol metabolism” value in series [2] (Lineweaver-Burk plot) is listed as “non-competitive”. The inhibition constant Ki in series [2] (Lineweaver-Burk, crizotinib 0, 4, 8, 16 µM, tramadol 15-120 µM) turned out to be 4.17 µM. In series [3], the “effect on pharmacokinetic parameters of O-desmethyl tramadol” value was “no significant differences”.
